Entries after “also recorded” stand apart in the source; their conditions may differ. Like-named read-outs stand apart in the source and are kept apart here. Blank lines part the entries; values can stand above or below the compound they belong to.
Columns and labels:
[1] = system: rat model of myocardial ischemia-reperfusion injury; assay: Rat myocardial ischemia-reperfusion infarct size protocol; assay type: in vivo; details: rats; for infarct size (as a percentage of the AR): FIG. 1, 3-day oral pretreatment; for infarct size: 3-day oral pretreatment (atorvastatin 2 mg/kg/d, cilostazol 20 mg/kg/d)
Experimental: Adenosine 5′ triphosphate [γ32P]
Hearts were excised and the left ventricle was sliced transversely into 6 sections. Slices were weighed and incubated for 15 minutes at 37° C. in 1% buffered (pH=7.4) 2,3,5-triphenyl-tetrazolium-chloride (TTC), fixed in a 10% formaldehyde and photographed in order to identify the AR (uncolored by the blue dye), the infarct size (unstained by TTC), and the non-ischemic zones (colored by blue dye). The area of AR and infarct size in each slice were determined by planimetry, converted into percentages of the whole for each slice, and multiplied by the weight of the slice and the results summed to obtain the weight of the myocardial AR and infarct size.

[2] = system: myocardial adenosine; assay: Myocardial adenosine levels (HPLC); assay type: in vivo, rat; details: rats; 3-day oral pretreatment; result in words
Experimental: Adenosine 5′ triphosphate [γ32P] […] Adenosine was analyzed by high performance liquid chromatography (HPLC) according to the procedure of Wojcik and Neff {Wojcik, 1982 #325}. […] The protein concentration was determined by Lowry assay. Ten volumes of 0.25 M Ba(OH)2 was added and the samples were centrifuged at 30,000×g for 10 minutes. The supernatants were then transferred to a conical tube and 5 μl of chloroacetaldehyde added to 20 μl of supernatant. The tubes were capped, mixed and submerged in a boiling water bath for 10 min. The samples were analyzed by HPLC using a Waters C18 reversed phase 150 mm×4.6 mm column. […] The excitation monochromator was set to a wavelength of 270 nm and the cutoff wavelength of the emission filter was 389 nm.

[3] = system: Akt; assay: Western blot of myocardial Akt; assay type: in vivo, rat; details: rats, 3-day oral pretreatment, immunoblot, result in words
Experimental: (§1) Adenosine 5' triphosphate [γ32P] […] The supernatant was collected and the total protein concentration was determined using Lowry Protein Assay. The protein samples were subjected to SDS-PAGE with 4-20% gradient polyacrylamide gel and transferred to pure nitrocellulose membrane (0.45 μm) (Bio-Rad). After blocking with 5% skim milk in Tris-buffered saline, the membrane was incubated overnight at 4° C. with primary antibodies against eNOS, Akt, […]-eNOS, […]-eNOS, […]-Akt, and PTEN, and secondarily with HRP-conjugated anti-mouse or anti-rabbit antibodies. The immunoblots were developed using ECL western Blotting Detection Reagent (Amersham). The protein signals were pictured by an image-scanner and analyzed using Image J software (National Institutes of health, USA). The strength of each signal was normalized to the corresponding β-actin stain signal. Data are expressed as a ratio between the protein and the corresponding β-actin signal density.

[4] = system: eNOS; assay: Western blot of myocardial eNOS; assay type: in vivo, rat; details: rats, 3-day oral pretreatment, immunoblot, result in words
Experimental: as §1

[5] = system: PTEN; assay: Western blot of myocardial PTEN; assay type: in vivo, rat; details: rats, 3-day oral pretreatment, immunoblot, result in words
Experimental: as §1

[6] = system: myocardial infarct size; details: 3-day pretreatment, cited from earlier work
[7] = system: eNOS; details: atorvastatin 3-day pretreatment, 1 mg/kg/d; cited from earlier work
[8] = system: calcium dependent NOS; details: atorvastatin 3-day pretreatment, 1 mg/kg/d; cited from earlier work
[9] = rat; 16 hours after the third dose, 10 mg/kg/d; cited from earlier work
[10] = system: cAMP-dependent protein kinase (PKA); assay: Myocardial protein kinase A (PKA) activity, rat; assay type: in vivo; details: rats; 3-day oral pretreatment; myocardial samples; result in words
[11] = system: myocardial infarct size; details: rabbit; intravenous 1 mg/kg/min for 5 min before myocardial ischemia; cited from earlier work
[12] = system: middle cerebral artery occlusion; details: rat, cited from earlier work
[13] = system: permanent middle cerebral artery occlusion; details: mouse; 30 mg/kg intraperitoneally three times (12 h before, 1 h before, just after ischemia); cited from earlier work
[14] = system: Akt; details: rat; oral 30 mg/kg after 2 hours of middle cerebral artery occlusion; cited from earlier work
[15] = 41 patients; cilostazol 200 mg/d versus aspirin 250 mg/d; cited from earlier work
[16] = cited from earlier work
[17] = 30 min ischemia, 4 h reperfusion, mean±SEM

SMILES: CC(C)c1c(C(=O)Nc2ccccc2)c(-c2ccccc2)c(-c2ccc(F)cc2)n1CC[C@@H](O)C[C@@H](O)CC(=O)O [atorvastatin]
infarct size (as a percentage of the AR) ([1]; result in words): did not affect infarct size
infarct size [1, 17]: 128 ± 8 mg
infarct size ([1]; result in words): did not affect infarct size
myocardial adenosine levels [2]: small increase in myocardial adenosine levels
myocardial levels of Ser-473 P-Akt [3]: small, statistically significant effect
myocardial total Akt levels [3]: did not affect
myocardial levels of Ser-1177 P-eNOS [4]: but not on Ser-1177 P-eNOS and Ser-633 P-eNOS levels; also recorded: did not increase
myocardial total eNOS levels [4]: did not affect
myocardial PTEN levels [5]: no effect
infarct size ([6]; 1 mg/kg/d): did not limit infarct size
infarct size ([6]; oral, 2 mg/kg/d): does not affect infarct size
infarct size ([6]; oral, 10 and 75 mg/kg/d): reduces infarct size
myocardial levels of P-eNOS [7]: did not affect
calcium dependent NOS activity [8]: did not affect
blood levels of atorvastatin [9]: comparable to those seen in humans treated with atorvastatin 80 mg/d

cAMP-dependent protein kinase (PKA) activity [10]: significantly increased
SMILES: O=C1CCc2cc(OCCCCc3nnnn3C3CCCCC3)ccc2N1 [cilostazol]
infarct size (as a percentage of the AR) ([1]; result in words): significantly smaller than in the control group
infarct size [1, 17]: 56 ± 4 mg
infarct size ([1]; result in words): reduced infarct size; also recorded: significant reduction in infarct size
myocardial adenosine levels [2]: small increase in myocardial adenosine levels
myocardial levels of Ser-473 P-Akt [3]: augmented myocardial levels
myocardial total Akt levels [3]: did not affect
myocardial levels of Ser-473 P-Akt ([3]; listed as CIL): significantly increased
myocardial levels of Ser-633 P-eNOS [4]: augmented myocardial levels
myocardial levels of Ser-1177 P-eNOS [4]: augmented myocardial levels
myocardial total eNOS levels [4]: did not affect
myocardial levels of Ser-633 P-eNOS ([4]; listed as CIL): significantly increased
myocardial levels of Ser-1177 P-eNOS ([4]; listed as CIL): significantly increased
myocardial PTEN levels [5]: significantly reduce PTEN levels
myocardial PTEN levels ([5]; listed as CIL): significantly decreased
effect of preconditioning by 2 min of ischemia [11]: potentiates the effect of preconditioning
myocardial infarct size [11]: does not affect myocardial infarct size
brain infarct size ([12]; 2 h occlusion, 24 h reperfusion, oral cilostazol 30 mg/kg, aspirin 300 mg/kg, clopidogrel 30 mg/kg): reduced brain infarct size
brain infarct size ([12]; oral 30 mg/kg at 5 min and 4 h after completion of 2 hours of middle cerebral artery occlusion): reduces brain infarct size
brain infarct size measured at 24 h [13]: reduced brain infarct size
Akt phosphorylation [14]: augmented Akt phosphorylation
6-month angiographic outcomes [15]: better 6-month angiographic outcomes than aspirin
minimal lumen diameter at follow-up [15]: larger
percent diameter stenosis [15]: smaller
plaque area (intravascular ultrasound) [15]: smaller
6-month restenosis rate ([16]; 50 patients, primary stenting for ST elevation acute myocardial infarction, cilostazol 100 mg BID versus aspirin alone): 0%
in-stent stenosis ([16]; 70 patients, Palmaz-Schatz stenting, cilostazol 200 mg/d, aspirin 81 mg/d): 8.6%
6-month restenosis after successful coronary stenting ([16]; CREST, cilostazol 100 mg bid, all patients on clopidogrel 30 days and aspirin 6 months): 22.0%
9-month target lesion revascularization rate per patient ([16]; RACTS trial, cilostazol 100 mg bid 6 months, ticlopidine 250 mg bid 1 month): 22.9%
